In PubChem BioAssay AID270 (DTP/NCI, 2004):
“And” between values parts separate entries of the source, which are not always exact repeats. Identical values can stand only once. Records with an inconclusive call do not appear.

Tested on: BDF1 mice, s.c. Lewis lung carcinoma, T/C %
Experiment: NCI In Vivo Anticancer Drug Screen. Data for tumor model Lewis Lung Carcinoma (subcutaneous) in B6D2F1 (BDF1) mice
Outline: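 Readout: survival or tumor size, expressed as treated (T) over vehicle control (C). Transplantable tumor implanted in mice; compound given to the treated group.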

[1] = endpoint: mean tumor weight, dose: 25.0 mg/kg/injection, schedule: Q01DX011 (ip), vehicle: saline, higher = larger tumour
[2] = endpoint: mean tumor weight, dose: 50.0 mg/kg/injection, schedule: Q01DX011 (ip), vehicle: saline, higher = larger tumour
[3] = endpoint: median survival time, dose: 1.0 mg/kg/injection, schedule: Q01DX009 (ip), vehicle: Klucel (hydroxypropylcellulose) (HPC), higher = longer survival

O=P(c1ccccc1)(N1CC1)N1CC1
T/C (endpoint: mean tumor weight, dose: 11.0 mg/kg/injection, schedule: Q01DX011 (ip), vehicle: saline, higher = larger tumour): 65 % of control | T/C (endpoint: mean tumor weight, dose: 17.0 mg/kg/injection, schedule: Q01DX011 (ip), vehicle: saline, higher = larger tumour): 93 % of control | T/C [1]: 69 % of control | T/C (endpoint: mean tumor weight, dose: 38.0 mg/kg/injection, schedule: Q01DX011 (ip), vehicle: saline, higher = larger tumour): 38 % of control | T/C (endpoint: mean tumor weight, dose: 76.0 mg/kg/injection, schedule: Q01DX011 (ip), vehicle: saline, higher = larger tumour): 52 % of control

CN(C)C(=S)N=Nc1c(O)[nH]c2ccccc12
T/C (endpoint: mean tumor weight, dose: 6.6 mg/kg/injection, schedule: Q01DX011 (ip), vehicle: carboxymethylcellulose (CMC), higher = larger tumour): 74 % of control | T/C (endpoint: mean tumor weight, dose: 10.0 mg/kg/injection, schedule: Q01DX011 (ip), vehicle: carboxymethylcellulose (CMC), higher = larger tumour): 89 % of control | T/C (endpoint: mean tumor weight, dose: 15.0 mg/kg/injection, schedule: Q01DX011 (ip), vehicle: carboxymethylcellulose (CMC), higher = larger tumour): 47 % of control and 65 % of control | T/C (endpoint: mean tumor weight, dose: 30.0 mg/kg/injection, schedule: Q01DX011 (ip), vehicle: carboxymethylcellulose (CMC), higher = larger tumour): 50 % of control

CCc1c(CC(=O)O)c2cc(C)ccc2n1Cc1ccc(Cl)cc1
T/C (endpoint: mean tumor weight, dose: 12.5 mg/kg/injection, schedule: Q01DX011 (ip), vehicle: saline, higher = larger tumour): 72 % of control | T/C [1]: 104 % of control | T/C [2]: 70 % of control

CC(C)C[CH2][Pb]([Cl])([CH2]CC(C)C)[CH2]CC(C)C
T/C (endpoint: median survival time, dose: 0.25 mg/kg/injection, schedule: Q01DX009 (ip), vehicle: Klucel (hydroxypropylcellulose) (HPC), higher = longer survival): 112 % of control | T/C (endpoint: median survival time, dose: 0.5 mg/kg/injection, schedule: Q01DX009 (ip), vehicle: Klucel (hydroxypropylcellulose) (HPC), higher = longer survival): 102 % of control | T/C [3]: 93 % of control

O=c1[nH]cnc2n[nH]nc12
T/C (endpoint: mean tumor weight, dose: 49.0 mg/kg/injection, schedule: Q01DX011 (ip), vehicle: other, higher = larger tumour): 76 % of control | T/C (endpoint: mean tumor weight, dose: 98.0 mg/kg/injection, schedule: Q01DX011 (ip), vehicle: other, higher = larger tumour): 64 % of control | T/C (endpoint: mean tumor weight, dose: 147.0 mg/kg/injection, schedule: Q01DX011 (ip), vehicle: other, higher = larger tumour): 55 % of control | T/C (endpoint: mean tumor weight, dose: 220.0 mg/kg/injection, schedule: Q01DX011 (ip), vehicle: other, higher = larger tumour): 67 % of control

O=CC(NC(=O)N(CCCl)N=O)C(O)C(O)C(O)CO (stereo unspecified)
T/C (endpoint: median survival time, dose: 1.25 mg/kg/injection, schedule: Q01DX009 (ip), vehicle: saline, higher = longer survival): 121 % of control | T/C (endpoint: median survival time, dose: 2.5 mg/kg/injection, schedule: Q01DX009 (ip), vehicle: saline, higher = longer survival): 112 % of control | T/C (endpoint: median survival time, dose: 3.3 mg/kg/injection, schedule: Q01DX009 (ip), vehicle: saline, higher = longer survival): 105 % of control | T/C (endpoint: median survival time, dose: 4.9 mg/kg/injection, schedule: Q01DX009 (ip), vehicle: saline, higher = longer survival): 102 % of control | T/C (endpoint: median survival time, dose: 5.0 mg/kg/injection, schedule: Q01DX009 (ip), vehicle: saline, higher = longer survival): 118 % of control | T/C (endpoint: median survival time, dose: 7.4 mg/kg/injection, schedule: Q01DX009 (ip), vehicle: saline, higher = longer survival): 96 % of control | T/C (endpoint: median survival time, dose: 10.0 mg/kg/injection, schedule: Q01DX001 (ip), vehicle: Klucel (hydroxypropylcellulose) (HPC), higher = longer survival): 88 % of control and 109 % of control | T/C (endpoint: median survival time, dose: 10.0 mg/kg/injection, schedule: Q01DX009 (ip), vehicle: saline, higher = longer survival): 111 % of control | T/C (endpoint: median survival time, dose: 12.0 mg/kg/injection, schedule: Q04DX003 (ip), vehicle: saline, higher = longer survival): 93 % of control | T/C (endpoint: median survival time, dose: 16.0 mg/kg/injection, schedule: Q01DX001 (ip), vehicle: saline, higher = longer survival): 110 % of control | T/C (endpoint: median survival time, dose: 18.0 mg/kg/injection, schedule: Q04DX003 (ip), vehicle: saline, higher = longer survival): 108 % of control | T/C (endpoint: median survival time, dose: 20.0 mg/kg/injection, schedule: Q01DX001 (ip), vehicle: Klucel (hydroxypropylcellulose) (HPC), higher = longer survival): 95 % of control | T/C (endpoint: median survival time, dose: 24.0 mg/kg/injection, schedule: Q01DX001 (ip), vehicle: saline, higher = longer survival): 96 % of control | T/C (endpoint: median survival time, dose: 36.0 mg/kg/injection, schedule: Q01DX001 (ip), vehicle: saline, higher = longer survival): 98 % of control

C[n+]1ccc(Nc2ccc(NC(=O)c3ccc(Nc4cc[n+](C)c5ccc(N)cc45)cc3)cc2)cc1
T/C [3]: 167 % of control | T/C (endpoint: median survival time, dose: 8.0 mg/kg/injection, schedule: Q01DX009 (ip), vehicle: Klucel (hydroxypropylcellulose) (HPC), higher = longer survival): 244 % of control

CN(C)CC(Cl)CCl (stereo unspecified)
T/C (endpoint: median survival time, dose: 50.0 mg/kg/injection, schedule: Q01DX009 (ip), vehicle: saline, higher = longer survival): 117 % of control | T/C (endpoint: median survival time, dose: 100.0 mg/kg/injection, schedule: Q01DX009 (ip), vehicle: saline, higher = longer survival): 122 % of control | T/C (endpoint: median survival time, dose: 200.0 mg/kg/injection, schedule: Q01DX009 (ip), vehicle: saline, higher = longer survival): 105 % of control

COc1cc(NC(=O)CN(CCCl)CCCl)cc(OC)c1OC
T/C (endpoint: median survival time, dose: 50.0 mg/kg/injection, schedule: Q01DX009 (ip), vehicle: saline with Tween-80, higher = longer survival): 88 % of control | T/C (endpoint: median survival time, dose: 100.0 mg/kg/injection, schedule: Q01DX009 (ip), vehicle: saline with Tween-80, higher = longer survival): 98 % of control | T/C (endpoint: median survival time, dose: 200.0 mg/kg/injection, schedule: Q01DX009 (ip), vehicle: saline with Tween-80, higher = longer survival): 94 % of control

Cn1c(=O)[nH]c2nncnc2c1=O
T/C (endpoint: median survival time, dose: 8.0 mg/kg/injection, schedule: Q01DX009 (ip), vehicle: water, higher = longer survival): 108 % of control | T/C (endpoint: median survival time, dose: 16.0 mg/kg/injection, schedule: Q01DX009 (ip), vehicle: water, higher = longer survival): 86 % of control | T/C (endpoint: median survival time, dose: 37.5 micrograms/kg/injection, schedule: Q01DX009 (ip), vehicle: water, higher = longer survival): 123 % of control | T/C (endpoint: median survival time, dose: 75.0 micrograms/kg/injection, schedule: Q01DX009 (ip), vehicle: water, higher = longer survival): 123 % of control | T/C (endpoint: median survival time, dose: 150.0 micrograms/kg/injection, schedule: Q01DX009 (ip), vehicle: water, higher = longer survival): 111 % of control | T/C (endpoint: median survival time, dose: 300.0 micrograms/kg/injection, schedule: Q01DX009 (ip), vehicle: water, higher = longer survival): 123 % of control

CCCCn1cnc2c(=S)nc[nH]c21
T/C (endpoint: mean tumor weight, dose: 15.0 mg/kg/injection, schedule: Q01DX011 (ip), vehicle: water, higher = larger tumour): 49 % of control | T/C (endpoint: mean tumor weight, dose: 30.0 mg/kg/injection, schedule: Q01DX011 (ip), vehicle: water, higher = larger tumour): 60 % of control | T/C (endpoint: mean tumor weight, dose: 60.0 mg/kg/injection, schedule: Q01DX011 (ip), vehicle: water, higher = larger tumour): 53 % of control

FC(F)(F)c1nc2nc(Cl)c(Cl)nc2[nH]1
T/C (endpoint: median survival time, dose: 11.25 mg/kg/injection, schedule: Q01DX009 (ip), vehicle: Klucel (hydroxypropylcellulose) (HPC), higher = longer survival): 105 % of control | T/C (endpoint: median survival time, dose: 22.5 mg/kg/injection, schedule: Q01DX009 (ip), vehicle: Klucel (hydroxypropylcellulose) (HPC), higher = longer survival): 101 % of control | T/C (endpoint: median survival time, dose: 45.0 mg/kg/injection, schedule: Q01DX009 (ip), vehicle: Klucel (hydroxypropylcellulose) (HPC), higher = longer survival): 96 % of control | T/C (endpoint: median survival time, dose: 90.0 mg/kg/injection, schedule: Q01DX009 (ip), vehicle: Klucel (hydroxypropylcellulose) (HPC), higher = longer survival): 98 % of control

c1ccc2nc3ccccc3c-2cc1
T/C (endpoint: mean tumor weight, dose: 125.0 mg/kg/injection, schedule: Q01DX011 (ip), vehicle: saline, higher = larger tumour): 90 % of control | T/C (endpoint: mean tumor weight, dose: 250.0 mg/kg/injection, schedule: Q01DX011 (ip), vehicle: saline, higher = larger tumour): 76 % of control | T/C (endpoint: mean tumor weight, dose: 500.0 mg/kg/injection, schedule: Q01DX011 (ip), vehicle: saline, higher = larger tumour): 48 % of control | T/C (endpoint: mean tumor weight, dose: 1000.0 mg/kg/injection, schedule: Q01DX011 (ip), vehicle: saline, higher = larger tumour): 56 % of control

O=C1C2C3C=CC(C3)C2C(=O)N1c1nccs1 (stereo unspecified)
T/C (endpoint: mean tumor weight, dose: 50.0 mg/kg/injection, schedule: Q01DX011 (ip), vehicle: carboxymethylcellulose (CMC), higher = larger tumour): 113 % of control | T/C (endpoint: mean tumor weight, dose: 100.0 mg/kg/injection, schedule: Q01DX011 (ip), vehicle: carboxymethylcellulose (CMC), higher = larger tumour): 100 % of control | T/C (endpoint: mean tumor weight, dose: 200.0 mg/kg/injection, schedule: Q01DX011 (ip), vehicle: carboxymethylcellulose (CMC), higher = larger tumour): 45 % of control

CC(=O)C1=C(O)C2(C)c3c(O)c(C)c(O)c(C(C)=O)c3OC2(Sc2ccccc2)CC1=O (stereo unspecified)
T/C (endpoint: median survival time, dose: 6.25 mg/kg/injection, schedule: Q01DX009 (ip), vehicle: gum acacia, higher = longer survival): 101 % of control | T/C (endpoint: median survival time, dose: 25.0 mg/kg/injection, schedule: Q01DX009 (ip), vehicle: gum acacia, higher = longer survival): 101 % of control | T/C (endpoint: median survival time, dose: 50.0 mg/kg/injection, schedule: Q01DX009 (ip), vehicle: gum acacia, higher = longer survival): 97 % of control

C/C(=N\N=C(/C)c1ccc(-c2ccccc2)cc1)c1ccc(-c2ccccc2)cc1
T/C [1]: 84 % of control | T/C [2]: 85 % of control | T/C (endpoint: mean tumor weight, dose: 100.0 mg/kg/injection, schedule: Q01DX011 (ip), vehicle: saline, higher = larger tumour): 76 % of control | T/C (endpoint: mean tumor weight, dose: 200.0 mg/kg/injection, schedule: Q01DX011 (ip), vehicle: saline, higher = larger tumour): 46 % of control

CN(C)c1ccc(-c2cc[n+](C)cc2)cc1
T/C (endpoint: median survival time, dose: 0.5 mg/kg/injection, schedule: Q01DX009 (ip), vehicle: saline, higher = longer survival): 103 % of control | T/C (endpoint: median survival time, dose: 1.0 mg/kg/injection, schedule: Q01DX009 (ip), vehicle: saline, higher = longer survival): 114 % of control | T/C (endpoint: median survival time, dose: 2.0 mg/kg/injection, schedule: Q01DX009 (ip), vehicle: saline, higher = longer survival): 119 % of control | T/C (endpoint: median survival time, dose: 3.0 mg/kg/injection, schedule: Q01DX009 (ip), vehicle: saline, higher = longer survival): 106 % of control | T/C (endpoint: median survival time, dose: 6.0 mg/kg/injection, schedule: Q01DX009 (ip), vehicle: saline, higher = longer survival): 103 % of control

C[C@H]1C[C@H]2[C@@H]3CC[C@](O)(C(=O)CO)[C@@]3(C)C[C@H](O)[C@]2(F)[C@@]2(C)C=CC(=O)C=C12
T/C (endpoint: mean tumor weight, dose: 15.0 mg/kg/injection, schedule: Q01DX011 (sc), vehicle: steriod suspending solution, higher = larger tumour): 44 % of control | T/C (endpoint: mean tumor weight, dose: 30.0 mg/kg/injection, schedule: Q01DX011 (sc), vehicle: steriod suspending solution, higher = larger tumour): 43 % of control | T/C (endpoint: mean tumor weight, dose: 90.0 mg/kg/injection, schedule: Q01DX011 (sc), vehicle: steriod suspending solution, higher = larger tumour): 12 % of control
